According to ChEMBL document CHEMBL5723587, “Data for DCP probe BI-113823” (2024):
Activity calls are given as the source filed them.

Tests used:
Rattus norvegicus = organism: Rattus norvegicus; assay: Activity against CA+/DHPSI/RA in the Eurofins SafetyScreen44 (BI) by Radioactive Assay; details: Compound concentration 10.0 uM
[1] = target: 5-hydroxytryptamine receptor 1A (Homo sapiens) (UniProt P08908); assay: Activity against 5HT1A/HU in the Eurofins SafetyScreen44 (BI) by Radioactive Assay; details: Compound concentration 10.0 uM
[2] = target: Interleukin-1 receptor type 1 (Mus musculus) (UniProt P13504); assay: Activity against IL-1ALPHA/M in the Eurofins SafetyScreen44 (BI) by Others; details: Compound concentration 10.0 uM
Sequence of Interleukin-1 receptor type 1 (Mus musculus) (P13504 whole entry): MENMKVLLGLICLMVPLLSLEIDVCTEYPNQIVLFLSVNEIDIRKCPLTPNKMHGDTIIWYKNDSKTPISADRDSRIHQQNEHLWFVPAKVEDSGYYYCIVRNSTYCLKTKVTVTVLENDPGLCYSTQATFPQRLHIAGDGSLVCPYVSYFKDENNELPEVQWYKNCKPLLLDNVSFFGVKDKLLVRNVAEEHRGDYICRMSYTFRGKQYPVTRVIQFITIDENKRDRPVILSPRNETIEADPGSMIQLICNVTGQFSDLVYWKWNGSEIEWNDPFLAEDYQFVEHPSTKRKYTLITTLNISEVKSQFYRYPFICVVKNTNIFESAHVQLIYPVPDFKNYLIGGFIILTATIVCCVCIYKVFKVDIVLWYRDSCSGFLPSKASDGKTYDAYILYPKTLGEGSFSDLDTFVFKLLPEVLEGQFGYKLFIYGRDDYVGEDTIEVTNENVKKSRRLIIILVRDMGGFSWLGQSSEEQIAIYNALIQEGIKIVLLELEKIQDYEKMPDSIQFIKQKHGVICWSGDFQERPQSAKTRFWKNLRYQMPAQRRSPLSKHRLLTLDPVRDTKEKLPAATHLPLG

[3] = target: Thyroid hormone receptor alpha (Rattus norvegicus) (UniProt P63059); assay: Activity against THYROID HORM in the Eurofins SafetyScreen44 (BI) by Radioactive Assay; details: Homo sapiens; Compound concentration 10.0 uM
[4] = target: Alpha-1A adrenergic receptor (Rattus norvegicus) (UniProt P43140); assay: Activity against ALPHA1A/R in the Eurofins SafetyScreen44 (BI) by Others; details: Compound concentration 10.0 uM
[5] = target: Voltage-dependent N-type calcium channel subunit alpha-1B (Rattus norvegicus) (UniProt Q02294); assay: Activity against CA+/N/RA in the Eurofins SafetyScreen44 (BI) by Radioactive Assay; details: Compound concentration 10.0 uM
[6] = target: Acetylcholine receptor subunit alpha (Homo sapiens) (UniProt P02708); assay: Activity against NACH/H in the Eurofins SafetyScreen44 (BI) by Radioligand Binding; details: Compound concentration 10.0 uM
[7] = target: Kappa-type opioid receptor (Homo sapiens) (UniProt P41145); assay: Activity against KAPPA/HU in the Eurofins SafetyScreen44 (BI) by Radioactive Assay; details: Compound concentration 10.0 uM
[8] = target: P2Y purinoceptor 1 (Rattus norvegicus) (UniProt P49651); assay: Activity against P2Y/RAT in the Eurofins SafetyScreen44 (BI) by Radioactive Assay; details: Compound concentration 10.0 uM
Sequence of P2Y purinoceptor 1 (Rattus norvegicus) (P49651 whole entry): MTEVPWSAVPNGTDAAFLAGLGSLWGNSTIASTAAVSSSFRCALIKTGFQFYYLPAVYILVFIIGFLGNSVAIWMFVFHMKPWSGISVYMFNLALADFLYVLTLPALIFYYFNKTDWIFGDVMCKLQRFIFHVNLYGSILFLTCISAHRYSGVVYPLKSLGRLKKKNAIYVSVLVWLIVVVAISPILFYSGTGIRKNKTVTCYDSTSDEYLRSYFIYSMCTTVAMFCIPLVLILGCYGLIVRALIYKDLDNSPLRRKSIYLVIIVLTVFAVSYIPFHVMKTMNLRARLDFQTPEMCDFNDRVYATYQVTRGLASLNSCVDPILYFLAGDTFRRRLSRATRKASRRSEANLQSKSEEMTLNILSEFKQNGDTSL

B1 bradykinin receptor [9] = target: T1, B1 bradykinin receptor (Homo sapiens, UniProt P46663); assay: Radioligand binding assay (displacement of kallidin, hBDKRB1 ) at 10 µM ( Non-specific binding is estimated in the presence of 10 µM Des-Arg9- (Leu8)-Bradykinin. Membranes are filtered and washed, the filters are then counted to determine [3H]Kallidin[des-Arg10, Leu9] specifically bound.); set-up: compound concentration 10 uM
T1 sequence (P46663 whole entry): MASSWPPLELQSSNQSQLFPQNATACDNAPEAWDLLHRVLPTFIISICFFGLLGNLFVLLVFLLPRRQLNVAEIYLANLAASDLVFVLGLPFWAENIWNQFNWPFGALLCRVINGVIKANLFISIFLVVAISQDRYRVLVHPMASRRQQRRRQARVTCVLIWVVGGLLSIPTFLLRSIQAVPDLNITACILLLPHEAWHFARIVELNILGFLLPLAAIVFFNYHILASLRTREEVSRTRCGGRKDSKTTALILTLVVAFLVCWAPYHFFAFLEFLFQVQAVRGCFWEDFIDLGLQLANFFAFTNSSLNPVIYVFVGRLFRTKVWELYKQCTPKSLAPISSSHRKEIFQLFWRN

[10] = target: Histamine H3 receptor (Homo sapiens) (UniProt Q9Y5N1); assay: Activity against H3/H in the Eurofins SafetyScreen44 (BI) by Radioactive Assay; details: Compound concentration 10.0 uM
Sequence of Histamine H3 receptor (Homo sapiens) (Q9Y5N1 whole entry): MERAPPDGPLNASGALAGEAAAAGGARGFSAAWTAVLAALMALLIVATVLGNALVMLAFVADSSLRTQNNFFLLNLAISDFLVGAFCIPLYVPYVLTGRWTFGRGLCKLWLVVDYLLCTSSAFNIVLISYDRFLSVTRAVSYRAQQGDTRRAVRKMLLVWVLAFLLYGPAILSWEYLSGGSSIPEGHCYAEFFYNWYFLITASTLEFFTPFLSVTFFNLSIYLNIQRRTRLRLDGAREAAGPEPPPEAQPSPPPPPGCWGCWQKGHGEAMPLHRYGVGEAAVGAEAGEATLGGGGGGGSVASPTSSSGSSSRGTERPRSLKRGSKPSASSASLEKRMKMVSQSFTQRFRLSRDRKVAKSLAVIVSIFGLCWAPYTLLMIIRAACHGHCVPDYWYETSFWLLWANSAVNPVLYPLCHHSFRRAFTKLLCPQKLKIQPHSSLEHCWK

[11] = target: Alpha-1D adrenergic receptor (Homo sapiens) (UniProt P25100); assay: Activity against ALPHA1D/H in the Eurofins SafetyScreen44 (BI) by Others; details: Compound concentration 10.0 uM
Sequence of Alpha-1D adrenergic receptor (Homo sapiens) (P25100 whole entry): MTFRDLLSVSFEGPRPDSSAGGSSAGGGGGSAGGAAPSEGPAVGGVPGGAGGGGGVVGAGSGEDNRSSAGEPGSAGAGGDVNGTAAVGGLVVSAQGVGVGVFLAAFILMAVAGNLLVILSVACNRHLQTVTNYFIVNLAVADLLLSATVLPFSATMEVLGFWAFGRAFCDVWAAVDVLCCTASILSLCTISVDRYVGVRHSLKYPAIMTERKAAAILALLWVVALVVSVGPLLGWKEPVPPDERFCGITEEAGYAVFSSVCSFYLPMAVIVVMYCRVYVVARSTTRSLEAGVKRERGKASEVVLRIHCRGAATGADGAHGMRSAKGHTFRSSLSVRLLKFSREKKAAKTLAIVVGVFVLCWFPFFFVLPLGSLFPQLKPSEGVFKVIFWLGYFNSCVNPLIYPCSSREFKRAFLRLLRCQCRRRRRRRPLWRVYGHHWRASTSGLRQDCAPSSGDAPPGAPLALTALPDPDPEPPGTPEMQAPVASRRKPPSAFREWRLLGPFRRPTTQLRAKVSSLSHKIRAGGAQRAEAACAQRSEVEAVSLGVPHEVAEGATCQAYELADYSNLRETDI

[12] = target: Glucocorticoid receptor (Homo sapiens) (UniProt P04150); assay: Activity against GLUCOCORTICO in the Eurofins SafetyScreen44 (BI) by Radioactive Assay; details: Compound concentration 10.0 uM
Sequence of Glucocorticoid receptor (Homo sapiens) (P04150 whole entry): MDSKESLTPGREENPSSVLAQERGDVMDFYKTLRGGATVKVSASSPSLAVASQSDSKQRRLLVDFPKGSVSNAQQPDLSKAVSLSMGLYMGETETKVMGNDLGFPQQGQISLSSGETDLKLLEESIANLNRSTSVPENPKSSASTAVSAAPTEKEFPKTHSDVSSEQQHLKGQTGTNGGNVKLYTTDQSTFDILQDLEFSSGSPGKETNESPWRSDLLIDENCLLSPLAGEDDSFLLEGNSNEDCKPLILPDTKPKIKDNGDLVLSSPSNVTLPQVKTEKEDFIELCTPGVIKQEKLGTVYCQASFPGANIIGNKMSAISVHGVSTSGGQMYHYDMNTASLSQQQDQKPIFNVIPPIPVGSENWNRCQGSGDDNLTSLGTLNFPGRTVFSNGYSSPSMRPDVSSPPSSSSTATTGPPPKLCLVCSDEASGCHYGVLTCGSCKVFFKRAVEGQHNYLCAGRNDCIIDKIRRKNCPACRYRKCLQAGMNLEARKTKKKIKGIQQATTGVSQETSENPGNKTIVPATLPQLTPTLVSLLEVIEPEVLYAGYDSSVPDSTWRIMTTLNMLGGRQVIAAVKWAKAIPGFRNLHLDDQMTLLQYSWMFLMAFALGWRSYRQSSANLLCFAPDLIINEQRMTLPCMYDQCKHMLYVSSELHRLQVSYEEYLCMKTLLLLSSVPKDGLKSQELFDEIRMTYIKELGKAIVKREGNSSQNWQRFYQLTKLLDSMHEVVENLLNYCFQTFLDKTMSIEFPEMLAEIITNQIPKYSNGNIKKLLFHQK

[13] = target: Mu-type opioid receptor (Homo sapiens) (UniProt P35372); assay: Activity against MU/HU in the Eurofins SafetyScreen44 (BI) by Radioactive Assay; details: Compound concentration 10.0 uM
[14] = target: B1 bradykinin receptor (Homo sapiens) (UniProt P46663); assay: Activity against B1/H in the Eurofins SafetyScreen44 (BI) by Radioactive Assay; details: Compound concentration 10.0 uM
[15] = target: Cysteinyl leukotriene receptor 1 (Homo sapiens) (UniProt Q9Y271); assay: Activity against CYSLT1_HS in the Eurofins SafetyScreen44 (BI) by Radioactive Assay; details: Compound concentration 10.0 uM
Sequence of Cysteinyl leukotriene receptor 1 (Homo sapiens) (Q9Y271 whole entry): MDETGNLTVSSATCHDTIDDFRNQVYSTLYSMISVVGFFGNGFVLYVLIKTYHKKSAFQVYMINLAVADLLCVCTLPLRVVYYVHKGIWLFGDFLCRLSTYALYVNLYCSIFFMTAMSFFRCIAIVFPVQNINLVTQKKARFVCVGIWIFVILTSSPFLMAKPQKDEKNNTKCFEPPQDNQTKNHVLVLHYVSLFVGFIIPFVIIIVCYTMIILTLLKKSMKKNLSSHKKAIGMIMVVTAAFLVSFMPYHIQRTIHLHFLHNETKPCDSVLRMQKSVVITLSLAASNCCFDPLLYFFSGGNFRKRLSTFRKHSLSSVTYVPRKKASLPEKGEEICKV

[16] = target: Pyroglutamylated RF-amide peptide receptor (Homo sapiens) (UniProt Q96P65); assay: Activity against GPR103 in the Eurofins SafetyScreen44 (BI) by Radioactive Assay; details: Compound concentration 10.0 uM
Sequence of Pyroglutamylated RF-amide peptide receptor (Homo sapiens) (Q96P65 whole entry): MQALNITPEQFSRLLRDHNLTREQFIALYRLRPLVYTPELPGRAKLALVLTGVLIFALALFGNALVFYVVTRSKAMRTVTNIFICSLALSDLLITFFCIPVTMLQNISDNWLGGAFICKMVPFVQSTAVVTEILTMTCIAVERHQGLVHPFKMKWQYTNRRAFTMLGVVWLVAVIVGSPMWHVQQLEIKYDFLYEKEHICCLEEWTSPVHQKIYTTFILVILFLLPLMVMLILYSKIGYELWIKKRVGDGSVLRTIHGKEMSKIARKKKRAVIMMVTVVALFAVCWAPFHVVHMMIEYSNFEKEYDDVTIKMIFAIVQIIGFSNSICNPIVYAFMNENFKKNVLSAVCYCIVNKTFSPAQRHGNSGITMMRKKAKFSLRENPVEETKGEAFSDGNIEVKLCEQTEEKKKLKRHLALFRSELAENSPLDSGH

hERG (KCNH2) = hERG (KCNH2) (Homo sapiens, UniProt Q12809); assay: Activity against K+/HERG in the Eurofins SafetyScreen44 (BI) by Radioactive Assay; details: compound concentration 10 uM, read-out: % Ctrl
[17] = target: Endothelin-1 receptor (Homo sapiens) (UniProt P25101); assay: Activity against ETA/HU in the Eurofins SafetyScreen44 (BI) by Radioactive Assay; details: Compound concentration 10.0 uM
[18] = target: Muscarinic acetylcholine receptor M1 (Homo sapiens) (UniProt P11229); assay: Activity against M1/HU in the Eurofins SafetyScreen44 (BI) by Radioactive Assay; details: Compound concentration 10.0 uM
Sequence of Muscarinic acetylcholine receptor M1 (Homo sapiens) (P11229 whole entry): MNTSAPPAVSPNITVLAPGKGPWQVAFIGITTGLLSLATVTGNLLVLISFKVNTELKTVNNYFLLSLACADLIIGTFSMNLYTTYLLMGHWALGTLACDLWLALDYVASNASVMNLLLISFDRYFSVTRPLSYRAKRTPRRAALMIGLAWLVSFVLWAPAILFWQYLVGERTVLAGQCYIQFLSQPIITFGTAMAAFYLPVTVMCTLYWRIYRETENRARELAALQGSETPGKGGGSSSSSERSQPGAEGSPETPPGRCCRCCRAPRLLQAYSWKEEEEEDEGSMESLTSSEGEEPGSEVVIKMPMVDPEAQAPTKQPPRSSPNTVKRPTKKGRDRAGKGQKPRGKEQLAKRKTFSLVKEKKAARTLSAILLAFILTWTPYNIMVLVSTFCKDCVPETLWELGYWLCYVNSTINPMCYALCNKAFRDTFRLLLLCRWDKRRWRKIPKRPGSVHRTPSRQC

B1 bradykinin receptor [19] = target: B1 bradykinin receptor (Rattus norvegicus, UniProt P97583); assay: Radioligand binding assay (displacement of kallidin, rat BDKRB1 ) at 10 µM ( Non-specific binding is estimated in the presence of 10 µM Des-Arg9- (Leu8)-Bradykinin. Membranes are filtered and washed, the filters are then counted to determine [3H]Kallidin[des-Arg10, Leu9] specifically bound.); set-up: compound concentration 10 uM
[20] = target: Epidermal growth factor receptor (Homo sapiens) (UniProt P00533); assay: Activity against EGF/HU in the Eurofins SafetyScreen44 (BI) by Radioactive Assay; details: Compound concentration 10.0 uM
B1 bradykinin receptor [21] = target: T1, B1 bradykinin receptor; assay: Measurement of intracellular calcium in HEK-cells expressing hBDKRB1 at up to 1 µM ( The compound antagonizes the effects of the specific B1 agonist [Lys-des-Arg9 ]-Bradykinin (10 nM) in a concentration-dependent manner.); format: functional, cell-based; set-up: compound concentration < 1 uM
B2 bradykinin receptor = B2 bradykinin receptor (Homo sapiens, UniProt P30411); assay: Radioligand binding assay (displacement of kallidin, human BDKRB2 ) at 10 µM ( Non-specific binding is estimated in the presence of 10 µM Des-Arg9- (Leu8)-Bradykinin. Membranes are filtered and washed, the filters are then counted to determine [3H]Kallidin[des-Arg10, Leu9] specifically bound.); set-up: compound concentration 10 uM
Sequence of B2 bradykinin receptor (P30411 whole entry): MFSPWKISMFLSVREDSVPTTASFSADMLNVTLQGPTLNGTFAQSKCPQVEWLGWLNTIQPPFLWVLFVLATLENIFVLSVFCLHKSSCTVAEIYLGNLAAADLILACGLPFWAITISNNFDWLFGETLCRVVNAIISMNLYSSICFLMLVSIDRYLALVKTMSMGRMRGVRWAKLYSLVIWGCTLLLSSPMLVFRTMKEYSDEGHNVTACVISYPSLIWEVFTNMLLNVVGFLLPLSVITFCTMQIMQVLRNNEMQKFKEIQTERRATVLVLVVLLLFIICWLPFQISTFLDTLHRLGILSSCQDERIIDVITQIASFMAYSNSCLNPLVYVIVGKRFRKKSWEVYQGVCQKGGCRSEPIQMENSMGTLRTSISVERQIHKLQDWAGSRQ

[22] = target: Sodium- and chloride-dependent GABA transporter 1 (Rattus norvegicus) (UniProt P23978); assay: Activity against GABATRANS/RA in the Eurofins SafetyScreen44 (BI) by Radioactive Assay; details: Compound concentration 10.0 uM
[23] = target: Type-1 angiotensin II receptor (Homo sapiens) (UniProt P30556); assay: Activity against AT1/HU in the Eurofins SafetyScreen44 (BI) by Radioligand Binding; details: Compound concentration 10.0 uM
[24] = target: Nicotinic acetylcholine receptor alpha-1/beta-1 (Homo sapiens) (UniProt P02708+P11230); assay: Activity against NACH_BS_N/H in the Eurofins SafetyScreen44 (BI) by Radioactive Assay; format: protein-complex assay; details: Compound concentration 10.0 uM
[25] = target: Adenosine receptor A1 (Homo sapiens) (UniProt P30542); assay: Activity against A1/HU in the Eurofins SafetyScreen44 (BI) by Radioactive Assay; details: Compound concentration 10.0 uM
Sequence of Adenosine receptor A1 (Homo sapiens) (P30542 whole entry): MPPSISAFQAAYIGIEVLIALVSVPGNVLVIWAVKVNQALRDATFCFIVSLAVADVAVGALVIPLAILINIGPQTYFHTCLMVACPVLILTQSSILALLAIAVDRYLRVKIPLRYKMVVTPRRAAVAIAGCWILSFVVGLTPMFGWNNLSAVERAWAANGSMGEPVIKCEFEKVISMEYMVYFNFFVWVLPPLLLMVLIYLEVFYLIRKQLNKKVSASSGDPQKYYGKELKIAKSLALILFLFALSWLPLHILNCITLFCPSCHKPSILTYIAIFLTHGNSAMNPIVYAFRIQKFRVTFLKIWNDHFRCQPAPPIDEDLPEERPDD

[26] = Activity against I2/CENTR/R in the Eurofins SafetyScreen44 (BI) by Radioactive Assay; details: Rattus norvegicus; Compound concentration 10.0 uM

COc1cc(C)c(S(=O)(=O)N(C)CCOCC(=O)N(C)[C@H]2CCC[C@@H](N3CCN(C)CC3)C2)c(C)c1
active: Ki (B1 bradykinin receptor [9]) 5.3 nM | residual activity [14] 22% | Ki (B1 bradykinin receptor [19]) 13.3 nM | IC50 (B1 bradykinin receptor [21]) 7 nM
> 10 µM (not active): Ki (B2 bradykinin receptor)
70% (not active): activity at 10 µM (hERG (KCNH2))
inactive: residual activity (Rattus norvegicus) 94% | residual activity [1] 99% | residual activity [2] 79% | residual activity [3] 84% | residual activity [4] 118% | residual activity [5] 100% | residual activity [6] 100% | residual activity [7] 99% | residual activity [8] 108% | residual activity [10] 77% | residual activity [11] 96% | residual activity [12] 103% | residual activity [13] 91% | residual activity [15] 95% | residual activity [16] 105% | residual activity [17] 96% | residual activity [18] 88% | residual activity [20] 125% | residual activity [22] 119% | residual activity [23] 115% | residual activity [24] 96% | residual activity [25] 99% | residual activity [26] 60%
